In the supplement of paper PMC10331698:
± gives the standard deviation of the averaged measurements.

Tests used:
Experiment in all cases: level (log10 ratio to DMSO vehicle control); higher = higher biomarker level / cell amount than vehicle control
[1] = compound: O=S(=O)(O)C(F)(F)C(F)(F)OC(F)(F)C(F)(F)F [Perfluoro(2-ethoxyethane)sulfonic acid] (in DMSO)
Procedure: (§1)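 BioMAP Diversity Plus panel of 12 human primary cell co-culture systems (3C, 4H, LPS, SAg, BT, BF4T, BE3C, CASM3C, HDF3CGF, KF3CT, MyoF, Mphg). Compounds were added 1 h before stimulation and left for 24 h (MyoF 48 h; BT 72 h for soluble read-outs or 6 d for IgG). Biomarkers were read by ELISA, cytotoxicity by SRB, PBMC viability and proliferation by Alamar Blue. Each well value was divided by the mean of 8 DMSO control wells on the same plate and log10 transformed; duplicate blinded samples were tested at 4 concentrations.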

[2] = compound: CCOC(=O)CC(=O)C(F)(F)C(F)(F)F [Ethyl pentafluoropropionyl acetate] (in DMSO)
Procedure: as §1

[3] = compound: CN(C(=O)C(F)(F)C(F)(F)C(F)(F)F)[Si](C)(C)C [N-Methyl-N-trimethylsilylheptafluorobutyramide] (in DMSO)
Procedure: as §1

[4] = compound: O=S(=O)(O)CCC(F)(F)C(F)(F)C(F)(F)C(F)(F)C(F)(F)C(F)(F)C(F)(F)C(F)(F)F [8:2 Fluorotelomer sulfonic acid] (in DMSO)
Procedure: as §1

[5] = compound: NS(=O)(=O)C(F)(F)C(F)(F)C(F)(F)C(F)(F)C(F)(F)C(F)(F)C(F)(F)C(F)(F)F [Perfluorooctanesulfonamide] (in DMSO)
Procedure: as §1

[6] = compound: O=C(O)C(F)(F)OC(F)(F)C(F)(F)OC(F)(F)C(F)(F)OC(F)(F)C(F)(F)C(F)(F)C(F)(F)F [Perfluoro-3,6,9-trioxatridecanoic acid] (in DMSO); conditions: 6700 nM
Procedure: as §1

[7] = compound: O=C(O)C=C(C(F)(F)F)C(F)(F)F [3,3-Bis(trifluoromethyl)-2-propenoic acid] (in DMSO)
Procedure: as §1

Row | Test System | level (log10) ([1]; 6700 nM) | level (log10) ([1]; 20000 nM) | level (log10) ([1]; 60000 nM) | level (log10) ([2]; 6700 nM) | level (log10) ([2]; 20000 nM) | level (log10) ([2]; 60000 nM) | level (log10) ([3]; 6700 nM) | level (log10) ([3]; 20000 nM) | level (log10) ([3]; 60000 nM) | level (log10) ([4]; 6700 nM) | level (log10) ([4]; 20000 nM) | level (log10) ([4]; 60000 nM) | level (log10) ([5]; 6700 nM) | level (log10) ([5]; 20000 nM) | level (log10) [6] | level (log10) ([7]; 6700 nM) | level (log10) ([7]; 20000 nM) | level (log10) ([7]; 60000 nM)
1 | LPS:CD106/VCAM-1 | 0.013 ± 0.034 | -0.007 ± 0.033 | 0.0165 ± 0.049 | 0.004 ± 0.011 | -0.0105 ± 0.037 | -0.0135 ± 0.026 | -0.0165 ± 0.0021 | -0.0035 ± 0.005 | -0.004 ± 0.041 | -0.0135 ± 0.073 | -0.021 ± 0.065 | -0.0535 ± 0.077 | 0.0075 ± 0.0035 | 0.0115 ± 0.016 | 0.001 ± 0.016 | -0.106 ± 0.021 | -0.141 ± 0.018 | -0.244 ± 0.069
2 | BF4T:MMP-1 | -0.002 ± 0.013 | -0.0005 ± 0.00071 | 0.0125 ± 0.0064 | -0.0045 ± 0.03 | -0.0005 ± 0.018 | 0.0155 ± 0.0035 | -0.0105 ± 0.04 | -0.0105 ± 0.054 | 0.0005 ± 0.018 | 0.005 ± 0.0085 | -0.002 ± 0.0071 | 0.0035 ± 0.0021 | 0.003 ± 0.016 | 0.0075 ± 0.019 | -0.0535 ± 0.012 | -0.006 ± 0.018 | 0 ± 0.0042 | 0.0125 ± 0.021
3 | LPS:CCL2/MCP-1 | 0.012 ± 0.0057 | 0.021 ± 0.0071 | 0.032 ± 0.035 | -0.025 ± 0.0085 | -0.0345 ± 0.018 | -0.0125 ± 0.018 | -0.0085 ± 0.0021 | -0.012 ± 0.013 | -0.0005 ± 0.023 | 0.0135 ± 0.023 | 0.016 ± 0.0028 | -0.055 ± 0.045 | -0.0035 ± 0.013 | 0.0165 ± 0.0021 | -0.0325 ± 0.023 | 0.0015 ± 0.00071 | -0.0145 ± 0.0035 | -0.02 ± 0.03
4 | BE3C:CXCL11/I-TAC | 0.032 ± 0.0057 | 0.076 ± 0.0042 | 0.073 ± 0.0042 | 0.002 ± 0.028 | 0.002 ± 0.0099 | -0.0015 ± 0.0078 | -0.01 ± 0.0071 | 0.003 ± 0.014 | 0.012 ± 0.031 | 0.0385 ± 0.0021 | 0.016 ± 0.0071 | -0.0915 ± 0.015 | -0.0565 ± 0.013 | -0.183 ± 0.06 | -0.992 ± 0.025 | -0.0375 ± 0.0092 | -0.033 ± 0.023 | -0.019 ± 0.011
5 | SAg:CD69 | 0.0055 ± 0.032 | 0.0065 ± 0.016 | 0.015 ± 0.021 | 0.0075 ± 0.026 | -0.0015 ± 0.029 | 0.019 ± 0.05 | -0.024 ± 0.0014 | 0.0015 ± 0.0078 | -0.0025 ± 0.015 | -0.025 ± 0.057 | -0.0205 ± 0.04 | -0.043 ± 0.075 | -0.0205 ± 0.06 | -0.119 ± 0.064 | -0.0065 ± 0.0021 | -0.0145 ± 0.013 | -0.0615 ± 0.0092 | -0.171 ± 0.0014
6 | LPS:M-CSF | -0.0095 ± 0.059 | 0.026 ± 0.028 | -0.0085 ± 0.032 | -0.021 ± 0.011 | 0.0085 ± 0.019 | 0.012 ± 0.088 | -0.0075 ± 0.0092 | -0.0135 ± 0.012 | -0.0045 ± 0.079 | -0.016 ± 0.041 | 0.0075 ± 0.054 | -0.0795 ± 0.088 | -0.0035 ± 0.032 | 0.05 ± 0.04 | 0.009 ± 0.018 | -0.071 ± 0.082 | -0.155 ± 0.13 | -0.203 ± 0.13
7 | 4H:CD106/VCAM-1 | -0.0085 ± 0.00071 | 0.0075 ± 0.037 | 0.01 ± 0.033 | -0.003 ± 0.034 | 0.03 ± 0.018 | 0.0215 ± 0.013 | -0.011 | -0.0305 ± 0.049 | -0.023 ± 0.065 | -0.0065 ± 0.025 | -0.018 ± 0.0014 | -0.0375 ± 0.0021 | 0.013 ± 0.034 | -0.0335 ± 0.044 | -0.023 ± 0.0085 | -0.12 ± 0.037 | -0.143 ± 0.017 | -0.25 ± 0.028
8 | LPS:SRB | -0.0175 ± 0.0021 | -0.012 | -0.0145 ± 0.0064 | 0.0015 ± 0.0021 | 0 ± 0.0028 | -0.004 ± 0.0085 | 0.0045 ± 0.012 | 0.0045 ± 0.0078 | 0 ± 0.0028 | -0.0085 ± 0.005 | -0.0095 ± 0.019 | -0.02 ± 0.018 | 0.009 ± 0.0057 | -0.0625 ± 0.0078 | 0.008 ± 0.0071 | -0.006 ± 0.0071 | -0.024 ± 0.0085 | -0.044 ± 0.0057
